This note sets out measurements from patent publication US9096585B2 (Icahn School of Medicine at Mount Sinai, priority 2010, dated 2015).

The test system of series [1] is A549 cells. Particulars: human, 24 h.
Series [2] deals with A549 cells. Description: Cell viability (cytotoxicity) in A549 cells. Particulars: A549.
For series [3], the system named is influenza virus polymerase (PB1, PB2, PA, NP). In kind it is cell-based, influenza A/WSN/33 virus. Particulars: for inhibition of viral RNA polymerase activity: mini-genome reporter construct.
Series [4] relates to cellular gene expression (Renilla luciferase).
Series [5] in a line: in vitro. The settings on record: human.
The next series relates to cellular 5S rRNA. The settings on record: concentration of 2 μM.
Series [6] relates to human adenovirus 5 (hAd5). It is filed as cell-based. Particulars: 10 μM A3 or less.
For series [7], the system named is influenza virus. In kind it is cell-based. Particulars: primary screen.
Series [8] can be described thus: Cell viability (cytotoxicity) in A549 cells. The settings on record: human, A549 cells.
In another series the test system is Sindbis virus. In words: Sindbis virus replication in A549 cells. It is filed as cell-based. The settings on record: 10 μM A3 or less.
Series [9] concerns Vesicular Stomatitis virus. It is filed as cell-based. Particulars: A549.
The test system of the next series is Sendai Virus 52. In words: Sendai virus replication in A549 cells. It is filed as cell-based. Particulars: A3 10 μM, 24 h.
In the next series the test system is Vaccinia Virus (NYVAC). In kind it is cell-based. Particulars: 10 μM A3 or less.
The next series relates to influenza A/WSN/33 virus. Description: Plaque-reduction assays with influenza A/WSN/33 virus in cell lines of different species, with or without pyrimidine supplements. In general terms: In a plaque reduction assay, fewer plaques than in the control indicate reduced infectivity or spread.
Another series deals with HIV-1 (NL4-3). In words: microbe, parasite or virus in culture. In kind it is cell-based.
The test system of series [10] is influenza viral proteins (NP, M1, and M2). It is filed as cell-based, influenza A/WSN/33 virus. The settings on record: A549; A/WSN/33; in the presence of A3.
The subject of another series is Hepatitis C virus. It is filed as cell-based. The settings on record: 10 μM A3 or less.
The target of series [11] is Human dihydroorotate dehydrogenase (DHODH) (Homo sapiens, UniProt Q02127). In words: In vitro colorimetric DHODH assay (DCIP reduction). Particulars: final concentration of 10 μM; 60 mins.
Series [12] relates to influenza virus. Description: Viral entry assay, influenza virus. It is filed as cell-based. Particulars: viral entry assays.
For series [13], the system named is influenza A/PR/8/34 virus v-, c-, and mRNA (NA segment). The settings on record: concentration of 2 μM.
The nature of series [14]: in vitro. Particulars: mouse.
A short description of series [15]: in vitro. Particulars: human. The source holds these as a separate data set.
In the next series the test system is Newcastle Disease virus. In kind it is cell-based. The settings on record: concentration of 11.2 μM; NDV/B1; A549.
For another series, the system named is retrovirus MLV. Description: Viral entry assay, retrovirus MLV. It is filed as cell-based. Particulars: viral entry assays.
In a further series the test system is VSV. It is filed as cell-based, Vesicular Stomatitis virus. The settings on record: viral entry assays.
[16] abbreviates: read-out: CC50 (A549), 24 hour period, Table 3.

SMILES strings stand for the structures. Entries after “also recorded” stand apart in the source; their conditions may differ. Like-named read-outs stand apart in the source and are kept apart here.

Sequence of Human dihydroorotate dehydrogenase (DHODH) (Q02127 whole entry): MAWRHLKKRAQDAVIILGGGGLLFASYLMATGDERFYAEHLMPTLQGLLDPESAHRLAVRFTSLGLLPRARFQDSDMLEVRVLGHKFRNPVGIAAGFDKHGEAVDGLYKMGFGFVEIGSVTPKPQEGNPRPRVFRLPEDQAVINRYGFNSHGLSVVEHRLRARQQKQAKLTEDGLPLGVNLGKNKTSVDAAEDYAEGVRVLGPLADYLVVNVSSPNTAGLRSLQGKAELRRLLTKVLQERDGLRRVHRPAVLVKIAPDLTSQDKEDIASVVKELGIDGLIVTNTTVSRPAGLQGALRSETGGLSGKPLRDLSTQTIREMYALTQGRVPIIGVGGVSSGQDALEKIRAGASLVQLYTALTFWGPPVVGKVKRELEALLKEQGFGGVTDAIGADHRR

Regarding `CCN(CC)S(=O)(=O)c1ccc(-c2nnc(SCC(=O)N3CCCC3)o2)cc1` [Compound A3-1, N,N-diethyl-4-(5-(2-oxo-2-(pyrrolidin-1-yl)ethylthio)-1,3,4-oxadiazol-2-yl)benzenesulfonamide], in the series on A549 cells [1], the “CC10 (A549)” value worked out at 17.3 µM.

`CCN(CC)C(=O)CSc1nnc(-c2ccc3[nH]c(C)c(C)c3c2)o1` [Compound A3-2, 2-(5-(2,3-dimethyl-1H-indol-5-yl)-1,3,4-oxadiazol-2-ylthio)-N,N-diethylacetamide]: the “CC10 (A549)” value in the series on A549 cells [1] stood at 29 µM.

Consider `Cc1[nH]c2ccc(-c3nnc(SCC(=O)N4CCc5ccccc54)o3)cc2c1C` [Compound A3-3, 2-(5-(2,3-dimethyl-1H-indol-5-yl)-1,3,4-oxadiazol-2-ylthio)-1-(indolin-1-yl)ethanone], for which the CC50 with A549 cells [2] (setting [16]) was 65 µM. In addition, the “CC10 (A549)” value in the series on A549 cells [1] was 8.5 µM.

`Cc1[nH]c2ccc(-c3nnc(SCC(=O)N(C(C)C)C(C)C)o3)cc2c1C` [Compound A3-4, 2-(5-(2,3-dimethyl-1H-indol-5-yl)-1,3,4-oxadiazol-2-ylthio)-N,N-diisopropylacetamide]: in the series with A549 cells [1], the “CC10 (A549)” value was 10.7 µM.

For `Cc1[nH]c2ccc(-c3nnc(SCC(=O)N4CCOCC4)o3)cc2c1C` [Compound A3-5, 2-(5-(2,3-dimethyl-1H-indol-5-yl)-1,3,4-oxadiazol-2-ylthio)-1-morpholinoethanone], the “CC10 (A549)” value with A549 cells [1] was 10.2 µM.

In the case of `Cc1[nH]c2ccc(-c3nnc(SCC(=O)N4CCCCCC4)o3)cc2c1C` [Compound A3-6, 1-(azepan-1-yl)-2-(5-(2,3-dimethyl-1H-indol-5-yl)-1,3,4-oxadiazol-2-ylthio)ethanone], the “CC10 (A549)” value with A549 cells [1] came out at 18.2 µM.

For the compound `O=C(CSc1nnc(-c2cc3ccccc3[nH]2)o1)N1CCCC1` [Compound A3-7, 2-(5-(1H-indol-2-yl)-1,3,4-oxadiazol-2-ylthio)-1-(pyrrolidin-1-yl)ethanone], in the series on A549 cells [1], the “CC10 (A549)” value was determined as 15.2 µM.

As to `COc1ccc(-c2nnc(SCC(=O)N3CCCC3)o2)cc1` [Compound A3-8, 2-(5-(4-methoxyphenyl)-1,3,4-oxadiazol-2-ylthio)-1-(pyrrolidin-1-yl)ethanone], the “CC10 (A549)” value in the series on A549 cells [1] amounted to 11.8 µM.

As to `O=C(CSc1nnc(-c2cc3ccccc3o2)o1)N1CCCC1` [Compound A3-9, 2-(5-(benzofuran-2-yl)-1,3,4-oxadiazol-2-ylthio)-1-(pyrrolidin-1-yl)ethanone], the “CC10 (A549)” value in the series with A549 cells [1] came out at 10.9 µM.

On to `O=C(CSc1nnc(-c2cccnc2)o1)N1CCCC1` [Compound A3-11, 2-(5-(pyridin-3-yl)-1,3,4-oxadiazol-2-ylthio)-1-(pyrrolidin-1-yl)ethanone], for which, in the series with A549 cells [1], the “CC10 (A549)” value is 32.6 µM.

With `O=C(CSc1nnc(-c2ccncc2)o1)N1CCCC1` [Compound A3-12, 2-(5-(pyridin-4-yl)-1,3,4-oxadiazol-2-ylthio)-1-(pyrrolidin-1-yl)ethanone], the “CC10 (A549)” value with A549 cells [1] amounted to 11.5 µM.

With `Cc1[nH]c2ccc(-c3nnc(SCC(=O)N4CCCC4)o3)cc2c1C` [Compound A3], the “inhibition of influenza virus polymerase function” value in series [3] (compared with the DMSO control, A3 at its CC10) turned out to be 98%. Also, the “inhibition of viral RNA polymerase activity” value in series [3] (at 10 μM) is listed as “up to 99%”. Also, the “potency relative to ribavirin” value in [3] (same degree of inhibition by 2 μM A3 as with 100 μM ribavirin) is 50 times. Further, the “cellular gene expression as monitored by Renilla luciferase activity” value in series [4] (A3 at its CC10) is “without affecting cellular gene expression”. The “overall host cell replication machinery (renilla luciferase control plasmid expression)” value in [4] (all A3 concentrations (0.4-30 μM)) was “not affected”. Besides, the CC50 in “in vitro [5]” and in the series “in vitro [14]” was over 100 µM in each case. For the same compound, the “levels of cellular 5S rRNA” value in the series with cellular 5S rRNA is listed as “without decreasing levels”. The sensitivity of adenovirus result in [6] is “sensitive”. In addition, the “luminescence signal of influenza virus inducible firefly luciferase reporter” value in the series on influenza virus [7] is reported as “no luminescence detectable”. This compound also came in with a CC50 at 24 h in series [8] of 268 µM. In addition, the “inhibition of Sindbis virus” value in the series with Sindbis virus is 2 logs. Besides, the “titer of vesicular stomatitis virus decreased” value in [9] (10 μM A3 or less) stood at 5 logs. Further, the “CC10 (A549)” value in the series on A549 cells [1] turned out to be 38 µM. The “inhibition of Sendai virus (SV52)” value in the series with Sendai Virus 52 stood at 3 logs. Further, the “sensitivity of vaccinia virus” value in the series on Vaccinia Virus (NYVAC) is “sensitive”. Moreover, the “inhibition of viral replication” value is “strong inhibition; also recorded: complete inhibition” in the series on influenza A/WSN/33 virus; “partially inhibited” in the series on influenza A/WSN/33 virus (baby hamster kidney (BHK) cells and pig kidney (PK-15) cells, A3 10 μM). In addition, in the series with influenza A/WSN/33 virus (both A549 and MDCK cells), the “effect of orotic acid on the inhibition by A3” value is “reverse the inhibition”. In addition, the “effect on viral replication” value with influenza A/WSN/33 virus (chicken fibroblast (DF-1) cells, A3 10 μM) is listed as “no effect”. Also, the “sensitivity of HIV-1” value in the series with HIV-1 (NL4-3) (10 μM A3 or less) is listed as “sensitive”. In the series on HIV-1 (NL4-3) (Human immunodeficiency virus 1, NL43, TZM-bl, 48 h, read-out: IC50 against HIV-1 (NL4-3)), the IC50 (as a rule, the concentration that gives 50% inhibition) was 0.205 µM. In the series with HIV-1 (NL4-3) (time-of-addition, TZM-bl, HIV-1 MOI=0.1, A3 at 1 μM), the “time of addition at which compound remains active” value was at most 12 h after infection. Besides, the “levels of viral proteins” value in series [10] was “reduced levels of viral proteins”. In addition, the “inhibition of hepatitis C virus” value in the series on Hepatitis C virus was found to be 2 logs. Besides, in series [11], the “DHODH activity in vitro” value is “Inhibits DHODH Activity”. In the series on influenza virus [12], the “viral entry of influenza virus” value is listed as “did not inhibit viral entry”. In series [13], the “production of all three viral RNA species (v-, c-, and mRNA)” value is recorded as “fully inhibit”.

On to `CN(Cc1ccccc1)c1nc(-c2ccc([N+](=O)[O-])cc2)cs1` [Compound A35-1], for which the “CC10 (A549)” value in the series with A549 cells [1] amounted to 10.8 µM.

On to `CN(c1nc(-c2ccccc2)cs1)C1CCS(=O)(=O)C1` (stereo not shown) [Compound A35-2], for which the “CC10 (A549)” value in the series with A549 cells [1] was determined as 12.2 µM.

On to `Nc1nc(-c2ccc(Cl)cc2)cs1` [Compound A35-3], for which the “CC10 (A549)” value with A549 cells [1] was found to be 11.4 µM.

Consider `CN(c1ccc(O)cc1)c1nc(-c2ccc(Cl)cc2)cs1` [Compound A35-4], for which the CC50 in the series on A549 cells [2] (setting [16]) was 30 µM. Further, in the series on A549 cells [1], the “CC10 (A549)” value turned out to be 6 µM.

Take `CN(C)c1nc(-c2ccc(Br)cc2)cs1` [Compound A35-5]: in the series on A549 cells [1], the “CC10 (A549)” value came to 17.8 µM. For the same compound, the CC50 at 24 h in the series “in vitro [15]” worked out at 242 µM.

Consider `CN(c1nc(-c2ccc(Br)cc2)cs1)C1CCS(=O)(=O)C1` (stereo not shown) [Compound A35], for which the “inhibition of VSV” value in [9] (concentration of 11.2 μM) was “less significant inhibition”. In addition, the “CC10 (A549)” value in the series on A549 cells [1] is 11.2 µM. The “inhibition of NDV” value in the series on Newcastle Disease virus was “less significant inhibition”. For the same compound, the “viral entry of influenza virus” value with influenza virus [12] is given as “did not affect the entry step”. In “in vitro [15]”, this compound displayed a CC50 at 24 h of 110 µM.

Take `COc1cc2c(O)c3c(c(-c4ccc5c(c4)OCO5)c2cc1OC)C(=O)OC3` [Compound C2]: in the series on retrovirus MLV, the “entry of the retrovirus MLV” value was “unaffected”. The same compound came in with a CC50 in the series with A549 cells [2] of 131 µM. Besides, the “entry of VSV” value in the series on VSV is given as “inhibited”. In the series with influenza virus [12], the “viral entry of influenza virus” value is listed as “inhibited”.

Turning to `Cc1oncc1C(=O)Nc1ccc(C(F)(F)F)cc1` [Leflunomide, reference compound], the “effect on influenza virus replication” value with influenza A/WSN/33 virus (A549 and MDCK cells, concentration of 10 μM) is reported as “No inhibition”.

Regarding `NC(=O)c1ncn([C@@H]2O[C@H](CO)[C@@H](O)[C@H]2O)n1` [ribavirin, reference compound], the “inhibition of viral RNA polymerase activity” value in series [3] (at 100 μM) stood at 90%.
